We go through 3 compounds from patent publication US5001222A, “Des-17-histidine-calcitonin” (Rhone-Poulenc Rorer Pharmaceuticals Inc., priority 1988, dated 1991).

In assay [1] the test system is serum calcium concentration. In words: Biological assay of calcitonin analogs in vivo: reduction of serum calcium vs salmon calcitonin standard, 2x2 parallel line assay. As to conditions: standard salmon calcitonin used in the assay. Set-up: species or system Rats. Here is the method:
Biological Assay of Calcitonin Analogs in Vivo
The biological potency of des-17-histidine-salmon calcitonin was determined by comparing the reduction of serum calcium concentration which followed administration by graded doses of des-His^17 -SCT and synthetic salmon calcitonin standard. Rats were divided into four groups of seven animals, and each group was assigned at random to a dose of standard or test solution. Low and high doses were chosen from the linear portion of the dose-response curve. For the salmon calcitonin standard, the values were 0.7 and 2.1 ng. peptide/100 g. body weight (BW). This dose approximates 3 and 9 MU/100 g. BW. Peptides were given by subcutaneous injection (0.2 ml/100 g. BW) and blood was withdrawn 1 hour later for serum calcium determination. Sera are processed and analyzed within two hours of collection. […]. Results were analyzed by a 2×2 parallel line assay [Gaddum, J. H., J. Pharm. Pharmacol., 6, 345 (1953)]. The standard salmon calcitonin used was independently determined to contain greater than 4,000 IU/mg. des-His^17 -SCT assayed at 4250 IU/mg.

The conditions of assay [2]: literature value, Experientia 32(9), 1104-1106 (1976); cited from earlier work.

For `CC(C)C[C@H](NC(=O)[C@H](CCCCN)NC(=O)CNC(=O)[C@H](CC(C)C)NC(=O)[C@@H](NC(=O)[C@@H]1CSSC[C@H](N)C(=O)N[C@@H](CO)C(=O)N[C@@H](CC(N)=O)C(=O)N[C@@H](CC(C)C)C(=O)N[C@@H](CO)C(=O)N[C@@H]([C@@H](C)O)C(=O)N1)C(C)C)C(=O)N[C@@H](CO)C(=O)N[C@@H](CCC(N)=O)C(=O)N[C@@H](CCC(=O)O)C(=O)N[C@@H](CC(C)C)C(=O)N[C@@H](Cc1c[nH]cn1)C(=O)N[C@@H](CCCCN)C(=O)N[C@@H](CC(C)C)C(=O)N[C@@H](CCC(N)=O)C(=O)N[C@H](C(=O)N[C@@H](Cc1ccc(O)cc1)C(=O)N1CCC[C@H]1C(=O)N[C@@H](CCCNC(=N)N)C(=O)N[C@H](C(=O)N[C@@H](CC(N)=O)C(=O)N[C@H](C(=O)NCC(=O)N[C@@H](CO)C(=O)NCC(=O)N[C@H](C(=O)N1CCC[C@H]1C(N)=O)[C@@H](C)O)[C@@H](C)O)[C@@H](C)O)[C@@H](C)O` [standard salmon calcitonin, Salmon calcitonin], the “potency content of the standard, independently determined” value in assay [1] was “greater than 4,000 IU/mg”. “(1,7-alpha-L-amino-suberic acid) eel calcitonin”: the hypocalcemic potency entry in assay [2] is reported as “about 3400 IU/mg”. As to “eel calcitonin [synthetic eel calcitonin]”, the hypocalcemic potency entry in assay [2] is reported as “around 4300 IU/mg”.
